Assay results taken from patent US4831033A (City of Hope, priority 1988, dated 1989).

Key:
Acetylcholinesterase = biological target: T1, Acetylcholinesterase (Electrophorus electricus, UniProt O42275); experiment: Acetylcholinesterase activity, acetylthiocholine substrate, colorimetric (Ellman); type: biochemical, electric eel; settings: for Acetylcholinesterase Activity Relative Potency: relative to amodiaquin
T1 construct: prepared from the electric organ of the electric eel; from tissue; host or cells: electric organ of the electric eel
T1 sequence (O42275 24-633): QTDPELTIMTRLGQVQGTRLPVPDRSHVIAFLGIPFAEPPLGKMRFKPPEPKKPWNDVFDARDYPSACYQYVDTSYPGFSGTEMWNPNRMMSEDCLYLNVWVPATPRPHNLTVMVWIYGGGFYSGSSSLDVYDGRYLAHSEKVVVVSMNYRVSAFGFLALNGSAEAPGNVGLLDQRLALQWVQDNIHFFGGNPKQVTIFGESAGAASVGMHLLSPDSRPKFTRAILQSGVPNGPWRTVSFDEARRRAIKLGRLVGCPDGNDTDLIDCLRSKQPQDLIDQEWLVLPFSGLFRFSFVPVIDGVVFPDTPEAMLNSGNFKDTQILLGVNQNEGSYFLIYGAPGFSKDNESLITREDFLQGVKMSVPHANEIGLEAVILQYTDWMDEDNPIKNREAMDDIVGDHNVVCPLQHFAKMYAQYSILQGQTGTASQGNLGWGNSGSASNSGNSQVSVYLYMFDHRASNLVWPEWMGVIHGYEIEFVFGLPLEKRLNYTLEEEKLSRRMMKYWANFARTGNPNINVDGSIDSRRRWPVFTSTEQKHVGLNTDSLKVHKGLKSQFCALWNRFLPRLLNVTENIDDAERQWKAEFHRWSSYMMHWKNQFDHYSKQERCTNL
Experimental: Cholinesterase activity reported in Table I was measured by a standard procedure. The enzyme employed was prepared from the electric organ of the electric eel. It is known to have the same properties as the enzyme of mammalian nervous tissue. Acetylthiocholine was used as substrate.
Inhibitory potency of substances was determined by measuring enzyme activity in the absence and presence of varying concentrations of the test substances.

[1] = test system: K^+ transport, P3 membrane fractions from whole brains of Swiss mice; experiment: K^+ transport (^86 Rb uptake) in P3 membrane fractions; type: biochemical; settings: for K^+ Transport Relative Potency: relative to amodiaquin; for concentration inhibiting K^+ transport (selection criterion): submillimolar concentrations
Experimental: To obtain the data set forth in Table I, K^+ -transport was measured using P3 membrane fractions prepared from whole brains of Swiss mice. […] The resulting supernatant was centrifuged at 17,000 g for 15 minutes, and the supernatant from the latter was centrifuged at 70,000 g for 1 hour to pellet the P3 fraction. The P3 pellet was washed by resuspension in 50 mM Tris-citrate (pH 7.3). After 10 minutes on ice, the suspension was centrifuged at 70,000 g for 10 minutes. This washing procedure was repeated twice using distilled water for the resuspension. […] The suspension (2-3 mg protein/ml) was stabilized on ice for 1 hour prior to use. Uptake of ^86 Rb (radioactive) was used to assess the K^+ -transport of the P3 articles. Many published experiments have shown the ^86 Rb, with a half-life 36 times longer than ^42 K, is a suitable tracer for K. Rb permeates neuronal K channels as well as does K itself.
After filtration of the samples, the filters were washed rapidly three times with 10^-3 M triethanolamine containing 0.1M RbCl (non-radioactive) and counted in ACS liquid scintillation cocktail (Amersham). In calculating the results, the uptake found in the presence of 0.1M non-radioactive RbCl was subtracted from that found in the presence of various concentrations of the test substances in the presence of 10^-6 M ^86 RbCl alone. […] Between 0.2 and 0.5 mg/ml usually were employed. The results were normalized by calculating them as percentages of the uptake observed with 10^-6 M ^86 RbCl alone.

Row | SMILES | Acetylcholinesterase Activity Rank Order (Acetylcholinesterase) | cholinesterase inhibitory potency compared with amodiaquin (in words) (Acetylcholinesterase) | Acetylcholinesterase Activity Relative Potency (Acetylcholinesterase) | K^+ Transport Rank Order [1] | K^+ transport inhibition compared with amodiaquin (in words) [1] | K^+ Transport Relative Potency [1] | concentration inhibiting K^+ transport (selection criterion) [1]
1 | CCN(CC)CCCC(C)Nc1c2ccc(Cl)cc2nc2ccc(OC)cc12 (stereo not shown) [Quinacrine, quinacrine] | 4(5) | less than one-thousandth | 0.001 | 3 | approximately one-half | 0.44 | ≤ 10^-3 M
2 | Nc1c2ccccc2nc2ccccc12 [9-aminoacridine] | – | – | – | 2 | approximately one-half | – | –
3 | CCN(CC)CCCC(C)Nc1ccnc2cc(Cl)ccc12 (stereo not shown) [Chloroquine, chloroquine] | 5(4) | less than one-thousandth | 0.001 | 4 | approximately one-twentieth as active | 0.067 | ≤ 10^-3 M
4 | CCN(CC)Cc1cc(Nc2ccnc3cc(Cl)ccc23)ccc1O [Amodiaquin, amodiaquin] | – | most effective cholinesterase inhibitor of this group | – | 1 | ranked first | – | –
